The record followed here is article PMC10447463, “Data-mining unveils structure–property–activity correlation of viral infectivity enhancing self-assembling peptides” (Nature Communications, 2023).

The format of series [1] is physicochemical. Particulars: for ThT Cat. / ThT-Fluorescence (categorical): ThT-active if fluorescence at least twice the control. In outline: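 Preformed peptide fibrils (1 mg/mL) mixed with 50 µM ThT in PBS, 15 min at RT, fluorescence ex 440/em 488 nm versus PBS blank, triplicates. Zeta potential: peptides at 1 mg/mL in PBS pH 7.4, aged 1 d at RT, diluted in 1 mM KCl, Smoluchowski from electrophoretic mobility.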

Series [2] can be described thus: Turbidity, derived count rate of scattered light. The class given is physicochemical. The conditions noted are these: for Count Rate: derived count rate of scattered light (turbidity); for Log10 Count Rate: turbidity, derived count rate of scattered light, data of Figure 2D.
Series [3] in a line: β-sheet content by ATR-FT-IR. The format is physicochemical. The conditions noted are these: Fig. S7 panel A; β-sheet content by ATR-FT-IR. The gist of the method:
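β-sheet content came from ATR FT-IR spectra of lyophilized 1 mg/mL nanofibril solution (64 scans, 2 cm^-1 resolution). Conversion was measured by separating free monomer with a 3 kDa cutoff filter, then comparing fluorescamine fluorescence (ex 365/em 470 nm, 20 min RT) of filtrate versus unfiltered sample, in triplicate.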

Read-outs that look alike come from different tables or passages of the source.

With CKFQC, the “Tht category (> 2 to blank = +)” value in series [1] (Fig S10 panel D) and in series [1] (FigS12 panel A) was 0 (ThT-inactive (N-Fold <2)) each time. In addition, the “ThT Cat.” value in series [1] (Fig S10 panel E) was 0 (ThT-inactive (N-Fold <2)); in series [1] (ThT category, 1 if Rel. ThT >2) it was 0 (ThT-inactive (N-Fold <2)). The “ThT Cat,” value in series [1] (FigS12 panel B) is 0 (ThT-inactive (N-Fold <2)); in series [1] (ThT category, 1 if Rel. ThT >2), 0 (ThT-inactive (N-Fold <2)). Moreover, the “ThT Cat. / ThT-Fluorescence (categorical)” value (“ThT Cat. / ThT-Fluorescence” for short) in series [1] was 0 (ThT-inactive (N-Fold <2)). The “Count Rate” value in series [2] was 130.4. Also, in series [2], the “Log10 Count Rate” value turned out to be 2.115. Also, the “b -sheet / %” value in series [3] stood at 43.86%.

In the case of HGEHGE, the “Tht category (> 2 to blank = +)” value in series [1] (Fig S10 panel D) is 0 (ThT-inactive (N-Fold <2)). The “Tht category (> 2 to blank = +)” value in series [1] (FigS12 panel A) is 0 (ThT-inactive (N-Fold <2)). For the same substance, the “ThT Cat,” value in series [1] (FigS12 panel B) was 0 (ThT-inactive (N-Fold <2)). Moreover, in series [1] (ThT category, 1 if Rel. ThT >2), the “ThT Cat,” value is 0 (ThT-inactive (N-Fold <2)) and the “ThT Cat.” value is 0 (ThT-inactive (N-Fold <2)). Besides, the “ThT Cat. / ThT-Fluorescence” value in series [1] was 0 (ThT-inactive (N-Fold <2)). In series [2], the “Count Rate” value stood at 240.6 and the “Log10 Count Rate” value is 2.381. In series [3], the “b -sheet / %” value was found to be 9.5428%.

On to KIKIQINMWQ, for which the “Tht category (> 2 to blank = +)” value in series [1] (Fig S10 panel D) is 1 (ThT. Cat is 1, if Rel. ThT >2). The “ThT Cat.” value in series [1] (Fig S10 panel E) was 1 (ThT. Cat is 1, if Rel. ThT >2). In addition, in series [1] (ThT category, 1 if Rel. ThT >2), the “ThT Cat,” value was 1 (ThT. Cat is 1, if Rel. ThT >2) and the “ThT Cat.” value is reported as 1 (ThT. Cat is 1, if Rel. ThT >2). In addition, the “ThT Cat. / ThT-Fluorescence” value in series [1] was 1 (ThT. Cat is 1, if Rel. ThT >2). In series [2], the “Count Rate” value worked out at 2196 and the “Log10 Count Rate” value turned out to be 3.342. Moreover, the “b -sheet / %” value in series [3] was 42.41%.

With MKFM, the “Tht category (> 2 to blank = +)” value in series [1] (Fig S10 panel D) is 0 (ThT-inactive (N-Fold <2)). In series [1] (FigS12 panel A), the “Tht category (> 2 to blank = +)” value is 0 (ThT-inactive (N-Fold <2)). The “ThT Cat,” value in series [1] (FigS12 panel B) was 0 (ThT-inactive (N-Fold <2)). Besides, in series [1] (ThT category, 1 if Rel. ThT >2), the “ThT Cat,” value is 0 (ThT-inactive (N-Fold <2)) and the “ThT Cat.” value is 0 (ThT-inactive (N-Fold <2)). The “ThT Cat. / ThT-Fluorescence” value in series [1] is 0 (ThT-inactive (N-Fold <2)). Further, in series [2], the “Count Rate” value came to 130.8 and the “Log10 Count Rate” value was determined as 2.1165. In series [3], the “b -sheet / %” value amounted to 34.63%.

In the case of CKFC, the “Tht category (> 2 to blank = +)” value in series [1] (Fig S10 panel D) and in series [1] (FigS12 panel A) was 0 (ThT-inactive (N-Fold <2)) in each case. The “ThT Cat.” value was 0 (ThT-inactive (N-Fold <2)) in series [1] (Fig S10 panel E) and 0 (ThT-inactive (N-Fold <2)) in series [1] (ThT category, 1 if Rel. ThT >2). The “ThT Cat,” value in series [1] (FigS12 panel B) was 0 (ThT-inactive (N-Fold <2)); in series [1] (ThT category, 1 if Rel. ThT >2) it was 0 (ThT-inactive (N-Fold <2)). For the same substance, in series [1], the “ThT Cat. / ThT-Fluorescence” value is 0 (ThT-inactive (N-Fold <2)). Also, the “Count Rate” value in series [2] is listed as 235.1. The “Log10 Count Rate” value in series [2] is on record as 2.371. The “b -sheet / %” value in series [3] was 38.87%.

As for TKTLTKTL, in series [1] (Fig S10 panel D), the “Tht category (> 2 to blank = +)” value was 0 (ThT-inactive (N-Fold <2)). In addition, the “Tht category (> 2 to blank = +)” value in series [1] (FigS12 panel A) was 0 (ThT-inactive (N-Fold <2)). Besides, in series [1] (FigS12 panel B), the “ThT Cat,” value was 0 (ThT-inactive (N-Fold <2)). Further, in series [1] (ThT category, 1 if Rel. ThT >2), the “ThT Cat,” value is 0 (ThT-inactive (N-Fold <2)) and the “ThT Cat.” value was 0 (ThT-inactive (N-Fold <2)). Further, in series [1], the “ThT Cat. / ThT-Fluorescence” value is 0 (ThT-inactive (N-Fold <2)). Also, in series [2], the “Count Rate” value stood at 514.6 and the “Log10 Count Rate” value was 2.711. In addition, in series [3], the “b -sheet / %” value worked out at 34.38%.

Turning to HRRHFRHKITKKK, the “Tht category (> 2 to blank = +)” value in series [1] (Fig S10 panel D) and in series [1] (FigS12 panel A) was 0 (ThT-inactive (N-Fold <2)) in each case. The “ThT Cat.” value is 0 (ThT-inactive (N-Fold <2)) in series [1] (Fig S10 panel E) and 0 (ThT-inactive (N-Fold <2)) in series [1] (ThT category, 1 if Rel. ThT >2). Moreover, the “ThT Cat,” value in series [1] (FigS12 panel B) is 0 (ThT-inactive (N-Fold <2)); in series [1] (ThT category, 1 if Rel. ThT >2), 0 (ThT-inactive (N-Fold <2)). Moreover, the “ThT Cat. / ThT-Fluorescence” value in series [1] was 0 (ThT-inactive (N-Fold <2)). Besides, the “Count Rate” value in series [2] was determined as 9.5. Besides, the “Log10 Count Rate” value in series [2] was determined as 0.9777. The “b -sheet / %” value in series [3] is reported as 45.34%.

As for CKIKIQIII, in series [1] (Fig S10 panel D), the “Tht category (> 2 to blank = +)” value was 1 (ThT. Cat is 1, if Rel. ThT >2). Also, in series [1] (ThT category, 1 if Rel. ThT >2), the “ThT Cat,” value is given as 1 (ThT. Cat is 1, if Rel. ThT >2) and the “ThT Cat.” value was 1 (ThT. Cat is 1, if Rel. ThT >2). In series [1], the “ThT Cat. / ThT-Fluorescence” value was 1 (ThT. Cat is 1, if Rel. ThT >2). Besides, in series [2], the “Count Rate” value was 4953 and the “Log10 Count Rate” value amounted to 3.695. Further, the “b -sheet / %” value in series [3] is on record as 36.7%.

Regarding KIKIQINMW, the “Tht category (> 2 to blank = +)” value in series [1] (Fig S10 panel D) is reported as 1 (ThT. Cat is 1, if Rel. ThT >2). In addition, in series [1] (ThT category, 1 if Rel. ThT >2), the “ThT Cat,” value is 1 (ThT. Cat is 1, if Rel. ThT >2). Also, the “ThT Cat.” value in series [1] (ThT fluorescence category, 1 if Rel. ThT >2) is 1 (ThT. Cat is 1, if Rel. ThT >2). Further, the “ThT Cat. / ThT-Fluorescence” value in series [1] was 1 (ThT. Cat is 1, if Rel. ThT >2). In series [2], the “Count Rate” value was determined as 239.6 and the “Log10 Count Rate” value is listed as 2.38. Further, in series [3], the “b -sheet / %” value came out at 45.5%.
